Tests used:
[1] = system: HBV quasi-species of patient sample N° 5; assay: High throughput phenotyping assay: patient sample N° 5; format: cell-based, hepatitis B virus; details: for IC50: Hepatitis B virus, 96 h, sample N° 5, D0 3TC, naïve, INNO LiPA wt, 4 days treatment; for Increase in resistance: sample N° 5, IC50 compared with referent virus
Description: (§1) The DNA from 1 ml of serum was extracted using the QIAamp Ultrasens Virus kit (Qiagen), and was taken up in 60 μl of water.
(§2) An amplification of the whole genomes by the method of the invention including the Nar I site was carried out and the amplicons obtained were purified by means of a silica column (Qiagen kit, Qiaquick purification kit).
(§3) The amplicons were then digested with the Nar I enzyme and purified by the same method as above.
(§4) These amplicons were transfected, in a culture format comprising a 25 cm^2 flask seeded the day before at a density of 5.2×10^4 cells/cm^2, with 200 to 400 ng of amplicon/cm^2.
(§5) After 60 hours, the cells were trypsinized and then treated with DNAse. After trypsinization, the cells were taken up in culture medium supplemented 50/50 with the two-times concentrated DNAse buffer (50 mM Tris, 1 mM CaCl2, 5 mM MgCl2, pH 8, 400 μg/ml of DNAse I) containing DNAse I, and incubated for 45 min at 37°. After pelleting, the cells were taken up in culture medium and distributed into 96-well culture plates coated (BioCoat) with collagen at a density of 6×10^4 cells/cm^2 in a volume corresponding to half the final volume used for the treatment with the drugs to be tested. This volume was completed with the 2-times concentration range of the drugs studied (Lamivudine and Adefovir)
(§6) The ranges used were from 100 to 0.01 μM for Lamivudine and from 100 to 6.25 μM for Adefovir. These cultures were treated with these dilutions for 4 days.
(§7) At the end of these 4 days of treatment, the viral DNA was extracted.
(§8) This step was carried out after washing the cells with PBS and adding the extraction buffer, i.e. 50 μl per 30 mm^2 (96-well format) (25 mM Tris, 0.5 mM CaCl2, 2.5 mM MgCl2, pH 8, 0.4 mg/ml DNAse, 0.4 mg/ml RNAse, 1% NP40). The lysis lasted one hour at 37° C. with agitation on a Heidolph Titramax 1000 plate mixer at a rotation rate of about 1050 rpm.
(§9) After this step of lysis and of digestion with DNAse and RNAse, the viral DNA produced during the culturing remains protected in the viral capsids. […]
(§10) This denaturation step was then stopped by adding a neutralizing buffer, 15 μl of 1M Tris at pH 7, and the solution thus obtained was subjected to a dilution before quantification by real time PCR. […]
(§11) The viral DNA extracted was then quantified by means of real time PCR quantification method.
(§12) This HBV production quantification step can be directly carried out after the preceding step, without any need to purify or concentrate the cell lysates to be assayed. […] (quantification step), and a final extension of one minute at 63° C. […]
(§13) For each plate assayed, a standard curve of 10^6 to 10^2 HBV copies/reaction was quantified in parallel. […]

[2] = system: HBV quasi-species of patient sample N° 19; assay: High throughput phenotyping assay: patient sample N° 19; format: cell-based, hepatitis B virus; details: for IC50: Hepatitis B virus, 96 h, sample N° 19, M24 3TC M3 PMEA, INNO LiPA L180M A181V, 4 days treatment; for Increase in resistance: IC50 compared with referent virus
Description: as §1, §2, §3, §4, §5, §6, §7, §8
After this step of lysis and of digestion with DNAse and RNAse, the viral DNA produced during the culturing remains protected in the viral capsids. This DNA was then extracted by denaturation of the viral capsids by means of alkalinization of the extraction buffer by addition of NaOH, i.e. 15 μl of a 0.4M solution per 50 μl of extraction buffer. This denaturation was carried out at 37° C. for 30 min under the same agitation conditions as during the treatment with DNAse, i.e. on a Heidolph Titramax 1000 plate mixer at a rotation rate of about 1050 rpm.
This denaturation step was then stopped by adding a neutralizing buffer, 15 μl of 1M Tris at pH 7, and the solution thus obtained was subjected to a dilution before quantification by real time PCR. The final dilution is ⅕ relative to the initial volume of extraction buffer, i.e. an addition of 170 μl of water in a 96-well format.
as §11
This HBV production quantification step can be directly carried out after the preceding step, without any need to purify or concentrate the cell lysates to be assayed. The real time PCR can be carried out in the same format as the culture format, i.e. a 96-well format on the Biorad MyiQ device, using the real time kit and the consumables suitable for this device, i.e. the iQ™ Sybr® Green Supermix two-times concentrated PCR mix. […] (quantification step), and a final extension of one minute at 63° C. […]
as §13

[3] = system: HBV quasi-species of patient sample N° 21; assay: High throughput phenotyping assay: patient sample N° 21; format: cell-based, hepatitis B virus; details: for IC50: Hepatitis B virus, 96 h, sample N° 21, D0 3TC, naïve, INNO LiPA wt, 4 days treatment; for Increase in resistance: sample N° 21, IC50 compared with referent virus
Description: as §1, §2, §3, §4, §5, §6, §7, §8, §9, §10, §11, §12, §13

[4] = system: reference HBV, genotype D, ayw serotype, wild-type phenotype; assay: High throughput phenotyping assay, HBV genomic amplicon transfected, viral DNA by real time PCR: referent virus; format: cell-based; details: Hepatitis B virus, 96 h, Referent virus (genotype D, ayw, without known mutation), 4 days treatment
Description: In addition to the 6 samples analysed, a control was included. This control is a genome of the reference HBV, genotype D, having an ayw serotype and a wild-type phenotype for all the drugs studied. This genome was amplified by the same technique as the samples analysed using a plasmid.
as §2, §3, §4
After 60 hours, the cells were trypsinized and then treated with DNAse. […]
as §10, §11, §12

[5] = system: HBV quasi-species of patient sample N° 7; assay: High throughput phenotyping assay: patient sample N° 7; format: cell-based, hepatitis B virus; details: for IC50: Hepatitis B virus, 96 h, sample N° 7, M18 3TC, INNO LiPA L80V M204I, 4 days treatment; for Increase in resistance: sample N° 7, IC50 compared with referent virus
Description: as §1, §2, §3, §4, §5, §6, §7, §8, §9, §10, §11, §12, §13

[6] = system: HBV quasi-species of patient sample N° 3; assay: High throughput phenotyping assay: patient sample N° 3; format: cell-based, hepatitis B virus; details: for IC50: Hepatitis B virus, 96 h, sample N° 3, D0 3TC, naïve, INNO LiPA wt, 4 days treatment; for Increase in resistance: sample N° 3, IC50 compared with referent virus
Description: as §1, §2, §3, §4, §5, §6, §7, §8, §9, §10, §11, §12, §13

[7] = system: HBV quasi-species of patient sample N° 17; assay: High throughput phenotyping assay: patient sample N° 17; format: cell-based, hepatitis B virus; details: for IC50: Hepatitis B virus, 96 h, sample N° 17, M24 3TC, INNO LiPA L180M ± M204I, 4 days treatment; for Increase in resistance: sample N° 17, IC50 compared with referent virus
Description: as §1, §2, §3, §4, §5, §6, §7, §8, §9, §10, §11, §12, §13

[8] = system: HBV; details: cited from earlier work

Nc1ncnc2c1ncn2CCOCP(=O)(O)O [Adefovir]
IC50 [1]: 8 µM
Increase in resistance [1]: 1
IC50 [2]: 52 µM
in vitro phenotype ([2]; sample N° 19): doubly resistant
Increase in resistance ([2]; sample N° 19): 6.5
IC50 [3]: 14.5 µM
Increase in resistance [3]: 1.8
IC50 [4]: 8 µM
IC50 [5]: 13.5 µM
Increase in resistance [5]: 1.7
IC50 [6]: 9 µM
Increase in resistance [6]: 1.1
IC50 [7]: 14 µM
Increase in resistance [7]: 1.75

alpha-interferon
chronic carriers that it is possible to treat [8]: approximately 40%

Nc1ccn([C@@H]2CS[C@H](CO)O2)c(=O)n1 [Lamivudine]
IC50 [1]: 0.2 µM
Increase in resistance [1]: 2
IC50 [2]: 40 µM
Increase in resistance ([2]; sample N° 19): 400
IC50 [3]: 0.14 µM
Increase in resistance [3]: 1.4
IC50 [4]: 0.1 µM
IC50 [5]: > 100 µM
Increase in resistance [5]: >1000
IC50 [6]: 0.7 µM
Increase in resistance [6]: 7
IC50 [7]: > 100 µM
Increase in resistance [7]: >1000
